Legend:
Assay type in all cases: in vivo
Abutilon theophrasti [1] = assay: Pre-emergence herbicidal action, ABUTH; conditions: dosage 320 g/ha, scored visually after 3 weeks vs untreated controls
From the text: (§1) 1. Pre-Emergence Herbicidal Action Against Harmful Plants Seeds of monocotyledonous and dicotyledonous weed plants and crop plants are laid out in sandy loam soil in wood-fiber pots and covered with soil. The compounds of the invention, formulated in the form of wettable powders (WP) or as emulsion concentrates (EC), are then applied to the surface of the covering soil in the form of an aqueous suspension or emulsion at a water application rate equating to […], with addition of 0.2% wetting agent. After the treatment, the pots are placed in a greenhouse and kept under good growth conditions for the trial plants. The damage to the test plants is scored visually after a test period of 3 weeks by comparison with untreated controls (herbicidal activity in percent (%): 100% activity=the plants have died, 0% activity=like control plants).
(§2) For comparison, the herbicidal activity of numerous compounds according to the invention was tested with the structurally closest compounds known from the documents WO 2011/035874, WO 2012/028579 and WO 2012/126932, by the pre- and post-emergence method.

Alopecurus myosuroides [2] = assay: Pre-emergence herbicidal action, ALOMY; conditions: dosage 320 g/ha, scored visually after 3 weeks vs untreated controls
From the text: as §1, §2

Amaranthus retroflexus [3] = assay: Pre-emergence herbicidal action, AMARE; conditions: dosage 320 g/ha, scored visually after 3 weeks vs untreated controls
From the text: as §1, §2

Avena fatua [4] = assay: Pre-emergence herbicidal action, AVEFA; conditions: dosage 320 g/ha, scored visually after 3 weeks vs untreated controls
From the text: as §1, §2

Cyperus serotinus = assay: Pre-emergence herbicidal action, CYPES; conditions: dosage 320 g/ha, scored visually after 3 weeks vs untreated controls
From the text: as §1, §2

Matricaria inodora = assay: Pre-emergence herbicidal action, MATIN; conditions: dosage 320 g/ha, scored visually after 3 weeks vs untreated controls
From the text: as §1, §2

Setaria viridis [5] = assay: Pre-emergence herbicidal action, SETVI; conditions: dosage 320 g/ha, scored visually after 3 weeks vs untreated controls
From the text: as §1, §2

Stellaria media [6] = assay: Pre-emergence herbicidal action, STEME; conditions: dosage 320 g/ha, scored visually after 3 weeks vs untreated controls
From the text: as §1, §2

Viola tricolor [7] = assay: Pre-emergence herbicidal action, VIOTR; conditions: dosage 320 g/ha, scored visually after 3 weeks vs untreated controls
From the text: as §1, §2

Abutilon theophrasti [8] = assay: Post-emergence herbicidal action, ABUTH; conditions: 80 g/ha, Table D
Protocol: (§3) Seeds of monocotyledonous and dicotyledonous weed and crop plants are laid out in sandy loam soil in wood-fiber pots, covered with soil and cultivated in a greenhouse under good growth conditions. 2 to 3 weeks after sowing, the test plants are treated at the one-leaf stage. The compounds of the invention, formulated in the form of wettable powders (WP) or as emulsion concentrates (EC), are then sprayed onto the green parts of the plants in the form of an aqueous suspension or emulsion at a water application rate equating to […], with addition of 0.2% wetting agent. After the test plants have been left to stand in the greenhouse under optimal growth conditions for about 3 weeks, the action of the preparations is assessed visually in comparison to untreated controls (herbicidal action in percent (%): 100% activity=the plants have died, 0% activity=like control plants). […] At the same time, inventive compounds leave Gramineae crops such as barley, wheat, rye, millet/sorghum, corn or rice virtually undamaged when applied post-emergence, even at high active compound dosages. In addition, some substances are also harmless to dicotyledonous crops such as soya, cotton, oilseed rape, sugar beet or potatoes. Some of the compounds according to the invention have high selectivity and are therefore suitable for controlling unwanted vegetation in agricultural crops by the post-emergence method. The data of Tables C and D below illustrate, in an exemplary manner, the […] herbicidal action of the compounds according to the invention, the herbicidal activity being stated in percent.
as §2

Amaranthus retroflexus [9] = assay: Post-emergence herbicidal action, AMARE; conditions: 80 g/ha, Table D
Protocol: as §3, §2

Avena fatua [10] = assay: Post-emergence herbicidal action, AVEFA; conditions: 80 g/ha, Table C
Protocol: as §3, §2

Pharbitis purpureum = assay: Post-emergence herbicidal action, PHBPU; conditions: 80 g/ha, Table D
Protocol: as §3, §2

Setaria viridis [11] = assay: Post-emergence herbicidal action, SETVI; conditions: 80 g/ha, Table C
Protocol: as §3, §2

Stellaria media [12] = assay: Post-emergence herbicidal action, STEME; conditions: 80 g/ha, Table D
Protocol: as §3, §2

Viola tricolor [13] = assay: Post-emergence herbicidal action, VIOTR; conditions: 80 g/ha, Table D
Protocol: as §3, §2

ECHCG = assay: Post-emergence herbicidal action, ECHCG; conditions: 80 g/ha, Table C
Protocol: as §3

Alopecurus myosuroides [14] = assay: Post-emergence herbicidal action, ALOMY; conditions: 80 g/ha, Table C
Protocol: as §3, §2

SMILES	herbicidal activity ABUTH (Abutilon theophrasti [1]) [%]	herbicidal activity ALOMY (Alopecurus myosuroides [2]) [%]	herbicidal activity AMARE (Amaranthus retroflexus [3]) [%]	herbicidal activity AVEFA (Avena fatua [4]) [%]	herbicidal activity CYPES (Cyperus serotinus) [%]	herbicidal activity MATIN (Matricaria inodora) [%]	herbicidal activity SETVI (Setaria viridis [5]) [%]	Herbicidal activity STEME (Stellaria media [6]) [%]	herbicidal activity VIOTR (Viola tricolor [7]) [%]	herbicidal activity ABUTH (Abutilon theophrasti [8]) [%]	herbicidal activity AMARE (Amaranthus retroflexus [9]) [%]	herbicidal activity AVEFA (Avena fatua [10]) [%]	Herbicidal activity PHBPU (Pharbitis purpureum) [%]	herbicidal activity SETVI (Setaria viridis [11]) [%]	Herbicidal activity STEME (Stellaria media [12]) [%]	herbicidal activity VIOTR (Viola tricolor [13]) [%]	Herbicidal activity ECHCG (ECHCG) [%]	herbicidal activity ALOMY (Alopecurus myosuroides [14]) [%]
CCc1c(C(=O)Nc2nnnn2CC)ccc(C(F)F)c1[S+](C)[O-] (stereo not drawn) [Example 2-14]	100	100	100	100	100	100	100	100	100	100	100	90	90	100	100	100	100	–
CCn1nnnc1NC(=O)c1ccc(C(F)F)c(S(C)(=O)=O)c1F [Example 2-39]	100	–	100	100	100	100	100	100	100	100	90	80	90	100	100	100	90	–
CCSc1c(C(F)F)ccc(C(=O)Nc2nnnn2CC)c1F [Example 2-40]	100	–	100	–	–	100	100	100	100	100	100	–	90	100	100	100	100	80
CCn1nnnc1NC(=O)c1ccc(C(F)F)c(S(=O)(=O)CC)c1F [Example 2-42]	100	90	100	90	90	100	100	90	100	100	90	–	90	100	100	100	100	–
CCn1nnnc1NC(=O)c1ccc(C(F)F)c([S+](C)[O-])c1Cl (stereo not drawn) [Example 2-50]	100	100	100	100	100	100	100	100	100	100	100	100	100	100	100	100	90	–
CCn1nnnc1NC(=O)c1ccc(C(F)F)c(S(C)(=O)=O)c1Cl [Example 2-51]	100	90	100	100	90	100	100	90	100	100	100	90	90	90	100	100	90	–
Cc1c(C(=O)Nc2ncnn2C)ccc(C(F)F)c1[S+](C)[O-] (stereo not drawn) [Example 4-2]	100	–	100	80	80	100	100	100	90	90	100	80	90	80	90	100	100	–
CCc1c(C(=O)Nc2nnc(C)o2)ccc(C(F)F)c1SC [Example 7-11]	100	80	100	90	90	–	100	80	100	90	90	–	90	90	90	100	90	90

From patent publication US20230183193A1, “4-DIFLUOROMETHYL BENZOYL AMIDES WITH HERBICIDAL ACTION” (BAYER CROPSCIENCE AKTIENGESELLSCHAFT, priority 2017, published 2023)
